Read-outs that look alike come from different tables or passages of the source.
Assays:
[1] = test system: MCF7; test: cells; format: cell-based; details: Homo sapiens, MCF7, breast cancer, 48 h
[2] = test system: KM12; test: cells; format: cell-based; details: Homo sapiens, KM12, colon cancer, 48 h; for GI50: read-out: Log10 GI50 (converted)
[3] = test system: SN12C; test: NCI 60 cell line panel screening assay (SRB), SN12C; format: cell-based; details: Homo sapiens, renal cancer, 48 h; for IC (TGI): read-out: Log10 TGI
[4] = test system: SR; test: cells; format: cell-based; details: Homo sapiens, 48 h; for CC50: read-out: Log10 LC50 (converted); for GI50: read-out: Log10 GI50 (converted)
[5] = test system: PC-3; test: cells; format: cell-based; details: Homo sapiens, PC-3, prostate cancer, 48 h
[6] = test system: HT29; test: cells; format: cell-based; details: Homo sapiens, HT-29, HT29, colon cancer, 48 h; for GI50: read-out: Log10 GI50 (converted)
[7] = test system: HCT-116; test: cells; format: cell-based; details: Homo sapiens, HCT-116, 48 h; for GI50: read-out: Log10 GI50 (converted)
[8] = test system: U251; test: cells; format: cell-based; details: Homo sapiens, U-251, U251, CNS cancer, 48 h; for GI50: read-out: Log10 GI50 (converted)
[9] = test system: SNB-75; test: cells; format: cell-based; details: Homo sapiens, SNB-75, CNS cancer, 48 h
[10] = test system: T-47D; test: NCI 60 cell line panel screening assay (SRB), T-47D; details: Homo sapiens, T47D, 48 h
[11] = test system: COLO 205; test: NCI 60 cell line panel screening assay (SRB), COLO 205; format: cell-based; details: Homo sapiens; for GI50: COLO 205, colon cancer, 48 h, read-out: Log10 GI50 (converted)
[12] = test system: TK-10; test: cells; format: cell-based; details: Homo sapiens, TK-10, renal cancer, 48 h; for GI50: read-out: Log10 GI50 (converted); for IC (TGI): read-out: Log10 TGI
[13] = test system: M14; test: NCI 60 cell line panel screening assay (SRB), M14; details: Homo sapiens, M14, 48 h; for CC50: read-out: Log10 LC50 (converted)
[14] = test system: SK-MEL-28; test: cells; format: cell-based; details: Homo sapiens, SK-MEL-28, melanoma, 48 h; for GI50: read-out: Log10 GI50 (converted)
[15] = test system: HCT-15; test: cells; format: cell-based; details: Homo sapiens, HCT-15, colon cancer, 48 h; for GI50: read-out: Log10 GI50 (converted)
[16] = test system: SW-620; test: NCI 60 cell line panel screening assay (SRB), SW-620; format: cell-based; details: Homo sapiens; for GI50: read-out: Log10 GI50 (converted)
[17] = test system: MOLT-4; test: cells; details: Homo sapiens; for IC (TGI): read-out: Log10 TGI; for IC50: MOLT-4, read-out: concentration for primary growth inhibition (PG +50)
[18] = test system: K-562; test: cells; format: cell-based; details: Homo sapiens
[19] = test system: RPMI-8226; test: NCI 60 cell line panel screening assay (SRB), RPMI-8226; format: cell-based; details: Homo sapiens; for GI50: read-out: Log10 GI50 (converted)
[20] = test system: MOLT-4; details: MOLT-4, FIG. 6
[21] = test system: OVCAR-5; test: cells; format: cell-based; details: Homo sapiens
[22] = test system: MDA-N; test: NCI 60 cell line panel screening assay (SRB), MDA-N; format: cell-based; details: Homo sapiens, breast cancer, 48 h, read-out: Log10 GI50 (converted)
[23] = test system: HOP-92; test: cells; format: cell-based; details: Homo sapiens, HOP-92, non-small cell lung cancer, 48 h; for GI50: read-out: Log10 GI50 (converted)
[24] = test system: UACC-62; test: cells; format: cell-based; details: Homo sapiens; for GI50: read-out: Log10 GI50 (converted); for IC (TGI): read-out: Log10 TGI
[25] = test system: NCI-H322M; test: cells; details: Homo sapiens, 48 h
[26] = test system: SK-OV-3; test: cells; format: cell-based; details: Homo sapiens
[27] = test system: CAKI-1; test: NCI 60 cell line panel screening assay (SRB), CAKI-1; format: cell-based; details: Homo sapiens
[28] = test system: BT-549; test: cells; format: cell-based; details: Homo sapiens, BT-549, breast cancer, 48 h
[29] = test system: SF-268; test: cells; format: cell-based; details: Homo sapiens, SF-268, CNS cancer, 48 h
[30] = test system: DU-145; test: cells; format: cell-based; details: Homo sapiens, DU-145, 48 h
[31] = read-out: Log10 GI50 (converted)
[32] = read-out: Log10 LC50 (converted)

C[C@@H]1CC[C@H]2[C@@H](C)C(=O)O[C@@H]3O[C@@]4(C)CC[C@@H]1[C@]32OO4 [Artemisinin]
greater than 10^-4 M: concentration for cytostasis (PG 0) [20]
18.6 µM: GI50 ([17]; MOLT-4, 48 h, read-out: Log10 GI50 (converted))
100 µM: GI50 [7] | IC (TGI) ([17]; MOLT-4, 48 h) | IC (TGI) ([18]; K562, K-562, leukemia, 48 h, read-out: Log10 TGI (converted))
> 100 µM: GI50 [1, 31] | IC (TGI) ([1]; read-out: Log10 TGI) | GI50 [2] | IC (TGI) [3] | CC50 [4] | GI50 ([4]; leukemia) | IC (TGI) ([5]; read-out: Log10 TGI) | GI50 [6] | GI50 [8] | GI50 [9, 31] | IC (TGI) ([10]; read-out: Log10 TGI) | GI50 [11] | GI50 [12] | IC (TGI) [12] | CC50 [13] | GI50 [14] | GI50 [15] | IC (TGI) ([15]; read-out: Log10 TGI) | GI50 ([16]; SW-620, colon cancer, 48 h) | IC50 [17] | GI50 ([19]; RPMI-8226, leukemia, 48 h) | GI50 ([21]; OVCAR-5, ovarian cancer, 48 h, read-out: Log10 GI50 (converted)) | GI50 [22] | GI50 [23] | GI50 ([24]; UACC-62, melanoma, 48 h) | IC (TGI) ([24]; UACC-62, melanoma, 48 h)

CC1CCC2C(C)C(CC(=O)c3cccc(C(=O)CC4OC5OC6(C)CCC7C(C)CCC(C4C)C57OO6)c3)OC3OC4(C)CCC1C32OO4 (centres unmarked) [Dimer 39]
> 100 µM: CC50 [1, 32] | GI50 [2] | CC50 [2, 32] | GI50 [3, 31] | CC50 [3, 32] | IC (TGI) [3] | GI50 ([4]; leukemia) | CC50 ([4]; leukemia) | IC (TGI) ([4]; leukemia, read-out: Log10 TGI) | GI50 [25, 31] | CC50 [25, 32] | IC (TGI) ([25]; read-out: Log10 TGI) | GI50 [5, 31] | LC50 [5, 32] | GI50 [6] | CC50 [6, 32] | GI50 [7] | CC50 [7, 32] | GI50 [8] | CC50 [8, 32] | IC (TGI) ([26]; SK-OV-3, 48 h, read-out: Log10 TGI) | GI50 ([26]; SK-OV-3, ovarian cancer, 48 h, read-out: Log10 GI50 (converted)) | CC50 ([26]; SK-OV-3, ovarian cancer, 48 h, read-out: Log10 LC50 (converted)) | CC50 [9, 32] | GI50 [10, 31] | CC50 [10, 32] | CC50 ([11]; COLO 205, 48 h, read-out: Log10 LC50 (converted)) | GI50 [11] | GI50 [12] | CC50 [12, 32] | IC (TGI) [12] | GI50 [13, 31] | CC50 [13] | IC (TGI) ([13]; read-out: Log10 TGI) | GI50 [14] | CC50 [14, 32] | IC (TGI) ([14]; read-out: Log10 TGI) | GI50 [15] | CC50 [15, 32] | CC50 ([27]; CAKI-1, 48 h, read-out: Log10 LC50 (converted)) | GI50 ([27]; CAKI-1, renal cancer, 48 h, read-out: Log10 GI50 (converted)) | IC (TGI) ([27]; CAKI-1, renal cancer, 48 h, read-out: Log10 TGI (converted)) | GI50 ([16]; SW-620, 48 h) | CC50 ([16]; SW-620, colon cancer, 48 h, read-out: Log10 LC50 (converted)) | IC (TGI) ([16]; SW-620, colon cancer, 48 h, read-out: Log10 TGI) | CC50 ([17]; MOLT-4, 48 h, read-out: Log10 LC50 (converted)) | IC (TGI) ([17]; MOLT-4, 48 h) | CC50 ([17]; MOLT-4, read-out: concentration for cytotoxicity (PG -50)) | IC50 [17] | GI50 [28, 31] | CC50 [28, 32] | GI50 [29, 31] | CC50 [29, 32] | CC50 ([18]; K562, 48 h, read-out: Log10 LC50 (converted)) | GI50 ([18]; K562, K-562, leukemia, 48 h, read-out: Log10 GI50 (converted)) | CC50 ([19]; RPMI-8226, 48 h, read-out: Log10 LC50 (converted)) | GI50 ([19]; RPMI-8226, leukemia, 48 h) | IC (TGI) ([19]; RPMI-8226, leukemia, 48 h, read-out: Log10 TGI) | IC (TGI) ([21]; OVCAR-5, 48 h, read-out: Log10 TGI) | CC50 ([21]; OVCAR-5, ovarian cancer, 48 h, read-out: Log10 LC50 (converted)) | GI50 [22] | GI50 [30, 31] | CC50 [30, 32] | IC (TGI) ([30]; read-out: Log10 TGI) | GI50 [23] | CC50 [23, 32] | IC (TGI) ([24]; UACC-62, 48 h) | GI50 ([24]; UACC-62, melanoma, 48 h) | LC50 ([24]; UACC-62, melanoma, 48 h, read-out: Log10 LC50 (converted))
greater than 10^-4 M: concentration for cytostasis (PG 0) [20]

From patent US6160004A, “C-10 carbon-substituted artemisinin-like trioxane compounds having antimalarial, antiproliferative and antitumor activities” (priority 1998, dated 2000)
